Assay results as given in patent publication US20240401154A1, “SYNTHESIS AND PREPARATION OF ULTRA-LOW VISCOSITY AND HIGH MAGNETIC SUSCEPTIBILITY MAGNETIC IONIC LIQUIDS” (priority 2023, published 2024).
Read-outs that look alike come from different tables or passages of the source. Marks after values point to notes of the source that are not given here.

How the values were obtained:
[1] = Magnetic properties by SQUID magnetometer; format: physicochemical; details: applied magnetic field H=20 kOe; Curie-Weiss fit
Method: Magnetic properties were analyzed using a magnetic susceptibility balance (MSB, Sherwood Scientific, Cambridge, UK) and a Quantum Design Superconducting Quantum Interference Device (SQUID) magnetometer (MPMS XL-7). The magnetic properties of transition metal MILs were further studied using a SQUID magnetometer to confirm their paramagnetic nature as well as if any magnetic transition occurs in the samples.
The magnetic properties of transition metal MILs were further studied using a SQUID magnetometer to confirm their paramagnetic nature as well as if any magnetic transition occurs in the samples.
The calculated μeff of 5.21μB for the [Ni(C6-DGE)6][Ni(hfacac)3]2 MIL (FIG. 12A) from SQUID matches quite well with the theoretical μtheo value (5.31μB, TABLE 1) and also with that obtained from MSB measurements (5.48μB).

[2] = SQUID magnetometer; previously studied MILs, Table 2; cited from earlier work
[3] = previously referenced MILs, cited from earlier work
[4] = reported at 19.9° C.; previously studied MILs, Table 2; cited from earlier work
[5] = GC-FID; previously referenced MILs; cited from earlier work
[6] = acetone, chloroform, dichloromethane, acetonitrile, methanol, ethanol, diethyl ether, ethyl acetate, isopropanol at 20% (w/v)
[7] = hexane, heptane, benzene, toluene at 10% (w/v)
[8] = hexane, heptane, benzene, toluene at 20% (w/v)

SMILES	μeff from SQUID [1] [μB]	Effective magnetic moment [2]	Solubility [3, 6]	Solubility [3, 7]	Solubility [3, 8]	Solubility ([3]; water at 0.01% (w/v))	Viscosity [4]	Onset of MIL volatilization (° C.)^1 [5] [°C]
CCCCCCOC(=O)COCC(=O)OCCCCCC.CCCCCCOC(=O)COCC(=O)OCCCCCC.CCCCCCOC(=O)COCC(=O)OCCCCCC.CCCCCCOC(=O)COCC(=O)OCCCCCC.CCCCCCOC(=O)COCC(=O)OCCCCCC.CCCCCCOC(=O)COCC(=O)OCCCCCC.O=C(C=C([O-])C(F)(F)F)C(F)(F)F.O=C(C=C([O-])C(F)(F)F)C(F)(F)F.O=C(C=C([O-])C(F)(F)F)C(F)(F)F.O=C(C=C([O-])C(F)(F)F)C(F)(F)F.O=C(C=C([O-])C(F)(F)F)C(F)(F)F.O=C(C=C([O-])C(F)(F)F)C(F)(F)F.[Ni+2].[Ni+2].[Ni+2] [MIL 2]	5.21	–	–	–	–	–	–	–
CCCCCCOC(=O)COCC(=O)OCCCCCC.CCCCCCOC(=O)COCC(=O)OCCCCCC.CCCCCCOC(=O)COCC(=O)OCCCCCC.CCCCCCOC(=O)COCC(=O)OCCCCCC.CCCCCCOC(=O)COCC(=O)OCCCCCC.CCCCCCOC(=O)COCC(=O)OCCCCCC.O=C(C=C([O-])C(F)(F)F)C(F)(F)F.O=C(C=C([O-])C(F)(F)F)C(F)(F)F.O=C(C=C([O-])C(F)(F)F)C(F)(F)F.O=C(C=C([O-])C(F)(F)F)C(F)(F)F.O=C(C=C([O-])C(F)(F)F)C(F)(F)F.O=C(C=C([O-])C(F)(F)F)C(F)(F)F.[Mn+2].[Mn+2].[Mn+2] [MIL 3]	8.31	–	–	–	–	–	–	–
CCCCCCCCN(CCCCCCCC)C(=O)COCC(=O)N(CCCCCCCC)CCCCCCCC.CCCCCCCCN(CCCCCCCC)C(=O)COCC(=O)N(CCCCCCCC)CCCCCCCC.CCCCCCCCN(CCCCCCCC)C(=O)COCC(=O)N(CCCCCCCC)CCCCCCCC.O=C(C=C([O-])C(F)(F)F)C(F)(F)F.O=C(C=C([O-])C(F)(F)F)C(F)(F)F.O=C(C=C([O-])C(F)(F)F)C(F)(F)F.O=C(C=C([O-])C(F)(F)F)C(F)(F)F.O=C(C=C([O-])C(F)(F)F)C(F)(F)F.O=C(C=C([O-])C(F)(F)F)C(F)(F)F.O=C(C=C([O-])C(F)(F)F)C(F)(F)F.O=C(C=C([O-])C(F)(F)F)C(F)(F)F.O=C(C=C([O-])C(F)(F)F)C(F)(F)F.O=C(C=C([O-])C(F)(F)F)C(F)(F)F.O=C(C=C([O-])C(F)(F)F)C(F)(F)F.O=C(C=C([O-])C(F)(F)F)C(F)(F)F.[Ho+3].[Ho+3].[Ho+3].[Ho+3] [[Ho(TODGA)3][Ho(hfacac)4]3]	–	20.86^f	S^b (soluble in acetone, chloroform, dichloromethane, acetonitrile, methanol, ethanol, diethyl ether, ethyl acetate, and isopropanol at 20% (w/v).)	S^a (soluble in hexane, heptane, benzene, and toluene at 10% (w/v).)	S^c (soluble in hexane, heptane, benzene, and toluene at 20% (w/v).)	S^f (insoluble in water at 0.01% (w/v).)	10,530^e	192
CCCCCCCCN(CCCCCCCC)C(=O)COCC(=O)N(CCCCCCCC)CCCCCCCC.CCCCCCCCN(CCCCCCCC)C(=O)COCC(=O)N(CCCCCCCC)CCCCCCCC.CCCCCCCCN(CCCCCCCC)C(=O)COCC(=O)N(CCCCCCCC)CCCCCCCC.O=C(C=C([O-])C(F)(F)F)C(F)(F)F.O=C(C=C([O-])C(F)(F)F)C(F)(F)F.O=C(C=C([O-])C(F)(F)F)C(F)(F)F.O=C(C=C([O-])C(F)(F)F)C(F)(F)F.O=C(C=C([O-])C(F)(F)F)C(F)(F)F.O=C(C=C([O-])C(F)(F)F)C(F)(F)F.O=C(C=C([O-])C(F)(F)F)C(F)(F)F.O=C(C=C([O-])C(F)(F)F)C(F)(F)F.O=C(C=C([O-])C(F)(F)F)C(F)(F)F.O=C(C=C([O-])C(F)(F)F)C(F)(F)F.O=C(C=C([O-])C(F)(F)F)C(F)(F)F.O=C(C=C([O-])C(F)(F)F)C(F)(F)F.[Dy+3].[Dy+3].[Dy+3].[Dy+3] [[Dy(TODGA)3][Dy(hfacac)4]3]	–	20.00^f	S^b (soluble in acetone, chloroform, dichloromethane, acetonitrile, methanol, ethanol, diethyl ether, ethyl acetate, and isopropanol at 20% (w/v).)	S^a (soluble in hexane, heptane, benzene, and toluene at 10% (w/v).)	S^c (soluble in hexane, heptane, benzene, and toluene at 20% (w/v).)	S^f (insoluble in water at 0.01% (w/v).)	9,210^e	175
